Earlier results on one substance are cited in patent US4127519A, “Octadecapeptides, intermediates therefor, and compositions and methods employing said octadecapeptides” (priority 1977, dated 1978).

The conditions of data set [1]: injected directly into the brain of the rat.
Data set [2] has as its system brain opiate receptor sites.

As for “H-Tyr-Gly-Gly-Phe-Met-OH [methionine enkephalin]”, in data set [1], the analgesic activity result is given as “weak analgesic agent of short duration”. In addition, the “binding to partially purified brain opiate receptor sites” value in data set [2] is on record as “binds stereo-specifically”.
